Consider 27 compounds from patent US6201025A, “N-aralkylaminotetralins as ligands for the neuropeptide Y Y5 receptor” (Ortho-McNeil Pharmaceutical, Inc., priority 1999, dated 2001).

Where a name gives a salt, the structure may show the parent alone. Read-outs that look alike come from different tables or passages of the source.

For this assay, the target named is T1, human neuropeptide Y5 receptor (Homo sapiens, UniProt Q15761).
T1 construct: expressed in transfected cells; cell membranes
T1 sequence (Q15761 1-445): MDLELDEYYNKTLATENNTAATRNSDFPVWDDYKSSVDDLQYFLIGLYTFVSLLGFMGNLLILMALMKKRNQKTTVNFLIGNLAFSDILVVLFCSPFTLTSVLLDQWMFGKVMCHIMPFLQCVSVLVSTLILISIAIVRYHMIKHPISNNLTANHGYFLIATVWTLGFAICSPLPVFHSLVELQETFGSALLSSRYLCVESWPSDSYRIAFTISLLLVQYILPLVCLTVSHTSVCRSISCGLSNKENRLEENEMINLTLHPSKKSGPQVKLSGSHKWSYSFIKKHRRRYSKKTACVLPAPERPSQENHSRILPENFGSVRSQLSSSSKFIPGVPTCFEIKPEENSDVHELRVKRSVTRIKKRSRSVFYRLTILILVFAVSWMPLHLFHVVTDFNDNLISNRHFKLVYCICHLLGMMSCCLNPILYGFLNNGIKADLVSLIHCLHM
In words: NPY5 HTS Centrifugation Assay: competition of 125I-PYY binding to membranes of NPY5-transfected HEK293 cells. Conditions: for inhibition at 3 µM: read-out: % Inhibition of 125I-PYY Binding @ 3 uM; for inhibition at 30 µM: read-out: % Inhibition of 125I-PYY Binding @ 30 uM. As to the method:
The compounds described in this invention were evaluated for binding to the human neuropeptide Y5 receptor.
Stably transfected cells served as the source for the membranes for the NPY5 receptor binding assay.
NPY5-transfected HEK293 cells were grown to confluence in 150 cm^2 culture dishes. […] Cells were then incubated in phosphate-buffered saline without Calcium and without Magnesium, supplemented with 2 mM EDTA. Cells were incubated for 10 minutes at room temperature and the cells were collected by repetitive pipeting. Cells were formed into pellets and then frozen at -80° C. until needed. Frozen pellets were homogenized with a polytron at full speed for 12 seconds in a homogenization buffer (20 mM Tris HCl, 5 mM EDTA, pH 7.4). Homogenates were centrifuged for 5 minutes at 4° C. at 200 g. Supernatants were transferred to corex tubes and centrifuged for 25 minutes at 28,000 g. Pellets were re-suspended in Binding (20 mM HEPES, 10 mM NaCl, 0.22 mM KH2 PO4, 1.3 mM CaCl2, 0.8 mM MgSO4, pH 7.4). Membranes were kept on ice until use.
Compounds to be tested were prepared as 10x stocks in binding buffer and added first to assay tubes (RIA vials, Sarstedt). […] To each tube is added 100 μL of membranes and the mixture is agitated by pipeting 2 times. Samples are incubated for 1 hr at room temperature. Aluminum cast plates (Sarstedt) containing the vials are then centrifuged 10 minutes at 3200 rpm in a Sorvall RT6000. Supernatant is then aspirated. To each vial 400 μL PBS is added and this is then aspirated again. Vials are then put in carrier polypropylene 12×75 tube and counted in gamma counter (Packard). Non-specific binding is determined in the presence of 300 nM NPY.

The mark [1] stands for this setting: 3 uM, 80 pM 125I-PYY, human NPY Y5 receptor, 1 hr room temperature.
The mark [2] stands for this setting: 30 uM, 80 pM 125I-PYY, human NPY Y5 receptor, 1 hr room temperature.

The term inhibition denotes the change of the read-out against control, counted positive when it falls. As to `COc1ccc2c(c1)CC[C@H](NCCc1ccc(OC)c(OC)c1)[C@@H]2Cc1ccccc1` (racemic) [Compound 6, rac-cis-1-(Phenylmethyl)-6-methoxy-N-(2-(3,4-dimethoxyphenyl)ethyl)-1,2,3,4-tetrahydro-2-naphthalenamine], under setting [1], the inhibition at 3 µM came to 86%. For the same compound, under setting [2], the inhibition at 30 µM was 101%. Consider `Fc1ccc(CN[C@H]2CCc3ccccc3[C@H]2Cc2ccccc2)cc1` (racemic) [Compound 9, rac-cis-1-(Phenylmethyl)-N-(4-fluorophenylmethyl)-1,2,3,4-tetrahydro-2-naphthalenamine monohydrobromide], for which, under setting [1], the inhibition at 3 µM was 20%. Under setting [2], the inhibition at 30 µM was found to be 97%. As for `COc1ccccc1CN[C@H]1CCc2ccccc2[C@H]1Cc1ccccc1` (racemic) [Compound 11, rac-cis-1-(Phenylmethyl)-N-(2-methoxyphenylmethyl)-1,2,3,4-tetrahydro-2-naphthalenamine], the inhibition at 3 µM under setting [1] was found to be 21%. Also, under setting [2], the inhibition at 30 µM was determined as 96%.

Turning to `COc1ccccc1CN[C@H]1CCc2ccccc2[C@H]1Cc1ccc(F)cc1` (racemic) [Compound 12, rac-cis-1-(4-Fluorophenylmethyl)-N-(2-methoxyphenylmethyl)-1,2,3,4-tetrahydro-2-naphthalenamine monohydrobromide], under setting [1], the inhibition at 3 µM amounted to 16%. The inhibition at 30 µM under setting [2] is 98%.

`COc1ccccc1CN[C@@H]1CCc2ccccc2[C@H]1Cc1ccc(F)cc1` (racemic) [Compound 13, rac-trans-1-(4-Fluorophenylmethyl)-N-(2-methoxyphenylmethyl)-1,2,3,4-tetrahydro-2-naphthalenamine monooxalate]: the inhibition at 3 µM amounted to 16% and the inhibition at 30 µM turned out to be 89%. For `COc1ccc2c(c1)[C@@H](Cc1ccccc1)[C@@H](NCc1ccccc1OC)CC2` (racemic) [Compound 15, rac-cis-1-(Phenylmethyl)-7-methoxy-N-(2-methoxyphenylmethyl)-1,2,3,4-tetrahydro-2-naphthalenamine monohydrobromide], the inhibition at 3 µM under setting [1] turned out to be 31%.

For `Fc1ccc(C[C@@H]2c3ccccc3CC[C@H]2NCCc2c[nH]c3ccccc23)cc1` (racemic) [Compound 16, rac-trans-1-(4-Fluorophenylmethyl)-N-(2-(3-indolyl)ethyl)-1,2,3,4-tetrahydro-2-naphthalenamine monooxalate], the inhibition at 3 µM was found to be 48% and the inhibition at 30 µM was 101%. With `COc1ccc2c(c1)[C@@H](Cc1ccccc1)[C@H](NCCc1c[nH]c3ccccc13)CC2` (racemic) [Compound 19, rac-trans-1-(Phenylmethyl)-7-methoxy-N-(2(3-indolyl)ethyl)-1,2,3,4-tetrahydro-2-naphthalenamine monooxalate], the inhibition at 3 µM was 49%. As to `c1ccc2c(c1)CC[C@@H](NCCc1c[nH]c3ccccc13)[C@@H]2Cc1ccc2ccccc2c1` (racemic) [Compound 21, rac-trans-1-(2-Naphthylmethyl)-N-(2-(3-indolyl)ethyl)-1,2,3,4-tetrahydro-2-naphthalenamine monooxalate], the inhibition at 3 µM came out at 33% and the inhibition at 30 µM was 103%. For `COc1ccccc1CN[C@H]1CCc2ccccc2[C@H]1Cc1ccc2ccccc2c1` (racemic) [Compound 22, rac-cis-1-(2-Naphthylmethyl)-N-(2-methoxyphenylmethyl)-1,2,3,4-tetrahydro-2-naphthalenamine monohydrobromide], the inhibition at 3 µM under setting [1] came out at 15%. Also, the inhibition at 30 µM under setting [2] was 96%.

In the case of `Fc1ccc(C[C@@H]2c3ccccc3CC[C@@H]2NCCCc2ccccc2)cc1` (racemic) [Compound 24, rac-cis-1-(4-Fluorophenylmethyl)-N-(3-phenylpropyl)-1,2,3,4-tetrahydro-2-naphthalenamine monohydrobromide], the inhibition at 3 µM under setting [1] was 19%. Besides, the inhibition at 30 µM under setting [2] was 102%.

For `c1ccc(C[C@H]2c3ccccc3CC[C@H]2NCCc2c[nH]c3ccccc23)cc1` (relative stereo) [Compound 8], the inhibition at 3 µM under setting [1] was 73%. For the same compound, the inhibition at 30 µM under setting [2] was 105%. With `Fc1ccc(CCN[C@@H]2CCc3ccccc3[C@@H]2Cc2ccccc2)cc1` (relative stereo) [Compound 14, monohydrobromide], the inhibition at 3 µM under setting [1] was determined as 13%. The inhibition at 30 µM under setting [2] came to 98%. As for `COc1ccccc1C(=O)N[C@@H]1CCc2ccccc2[C@@H]1Cc1ccccc1` (relative stereo) [Compound 17, rac-cis-1-(Phenylmethyl)-N-(2-methoxyphenyl-2-oxomethyl)-1,2,3,4-tetrahydro-2-naphthalenamine monohydrobromide], under setting [1], the inhibition at 3 µM was found to be 65%. The inhibition at 30 µM under setting [2] was determined as 98%. The like results for `COc1ccc2c(c1)[C@H](Cc1ccccc1)[C@H](NCCc1c[nH]c3ccccc13)CC2` (relative stereo) [Compound 18, rac-cis-1-(Phenylmethyl)-7-methoxy-N-(2-(3-indolyl)ethyl)-1,2,3,4-tetrahydro-2-naphthalenamine 0.8 fumarate 0.8 methanol 0.2 hydrate] were, in that order, 61% and 104%. In the case of `c1ccc2c(c1)CC[C@@H](NCCc1c[nH]c3ccccc13)[C@H]2Cc1ccc2ccccc2c1` (relative stereo) [Compound 20, rac-cis-1-(2-Naphthylmethyl)-N-(2-(3-indolyl)ethyl)-1,2,3,4-tetrahydro-2-naphthalenamine hemifumarate methanol], the inhibition at 3 µM under setting [1] is 27%. Moreover, the inhibition at 30 µM under setting [2] stood at 99%.

For `COc1ccccc1CC(=O)N[C@@H]1CCc2ccccc2[C@@H]1Cc1ccccc1` (relative stereo) [Compound 23], under setting [1], the inhibition at 3 µM was determined as 12%. Also, the inhibition at 30 µM under setting [2] stood at 47%. Consider `COc1ccc(CCN[C@H]2CCc3ccccc3[C@H]2Cc2cccnc2)cc1OC` (relative stereo) [Compound 28, rac-cis-1-(3-pyridylmethyl)-N-(2-(3,4-dimethoxyphenyl)ethyl-1,2,3,4-tetrahydro-2-naphthalenaminemonohydrobromide], for which the inhibition at 3 µM under setting [1] came out at 11%. Also, the inhibition at 30 µM under setting [2] amounted to 66%.

`COc1ccc2c(c1)CC[C@@H](NCCc1ccccc1)[C@H]2Cc1ccccc1` (relative stereo) [Compound 29]: the inhibition at 3 µM under setting [1] worked out at 33%. Further, under setting [2], the inhibition at 30 µM was 95%. With `COc1ccc(CCN[C@@H]2CCc3cc(OC)ccc3[C@@H]2Cc2ccccc2)cc1` (relative stereo) [Compound 30], the inhibition at 3 µM under setting [1] worked out at 62%. Also, the inhibition at 30 µM under setting [2] was determined as 99%. For the compound `COc1ccc2c(c1)CC[C@@H](NCCc1ccc(Cl)c(Cl)c1)[C@H]2Cc1ccccc1` (relative stereo) [Compound 31], the inhibition at 3 µM under setting [1] worked out at 31%. Further, under setting [2], the inhibition at 30 µM was found to be 93%. As for `COc1cccc(C[C@H]2c3ccc(OC)cc3CC[C@H]2NCCc2ccc(OC)c(OC)c2)c1` (relative stereo) [Compound 32], the inhibition at 3 µM under setting [1] was found to be 44%. Further, the inhibition at 30 µM under setting [2] is 97%.

As for `COc1ccc2c(c1)CC[C@@H](NCCc1ccc(OC)c(OC)c1)[C@H]2Cc1cccc2ccccc12` (relative stereo) [Compound 33], the inhibition at 3 µM under setting [1] worked out at 16%. In addition, under setting [2], the inhibition at 30 µM was 73%. Regarding `COc1ccc(C[C@H]2c3ccc(OC)cc3CC[C@H]2NCCc2ccc(OC)c(OC)c2)cc1` (relative stereo) [Compound 34], under setting [1], the inhibition at 3 µM was 89%. Besides, the inhibition at 30 µM under setting [2] is 103%. Take `COc1ccc(CCN[C@@H]2CCc3ccccc3[C@@H]2Cc2ccccc2)cc1OC` (relative stereo) [Compound 35]: the inhibition at 3 µM under setting [1] is 47%. Also, the inhibition at 30 µM under setting [2] amounted to 99%. The like results for `COc1ccc2c(c1)CC[C@@H](NCCc1ccc(Oc3ccccc3)cc1)[C@H]2Cc1ccccc1` (relative stereo) [Compound 36] were, in that order, 35% and 87%. For `COCCOc1ccc(CCN[C@H]2CCc3cc(OC)ccc3[C@H]2Cc2ccccc2)cc1` (relative stereo) [Compound 37], the inhibition at 3 µM under setting [1] is 84%.
